Test results published in US8097585B2, “Methods of treating inflammation by administration of heme oxygenase-1 and products of heme degradation” (priority 2002, dated 2012).
Structures can show the parent of a compound that is named as a salt.

Assays:
NF-κB = test: EMSA of nuclear extracts, NF-κB DNA binding; format: cell-based; details: Jurkat T cells, PMA plus ionomycin, 100 μM biliverdin
Protocol: Nuclear protein extraction and electrophoretic mobility shift assay (EMSA). Jurkat T cells were cultured in 10% FCS supplemented RPMI 1640 with 50 nM phorbol myristyl acetate (PMA) and 2 μM ionomycin (both reagents from ICN Biomedicals) in the presence or absence of 100 μM biliverdin. Following 0, 2, and 4 hrs of stimulation, cells (30×10^6 cells for each group at each time points) were collected, washed twice with PBS, and pelleted. Nuclear and cytoplasmic extracts were prepared according to a modified Shapiro's method (Shapiro et al., DNA 7(1):47-55, 1988). Protein concentrations were determined by the Bradford assay. The following oligonucleotides (Invitrogen, Calsbad, Calif.) were used for EMSA:
NF-κB, (coding) 5′-[…]-3′ (SEQ ID NO:7),
(non-coding) 5′-[…]-[…]-3′ (SEQ ID NO:8).
Oligonucleotides were radioactively labeled with [^32P] ATP. The EMSA reactions were assembled as previously described (Usheva et al., Proc. Natl. Acad. Sci. USA 93(24):13571-6, 1996). Digital images from the EMSA radiographs were obtained using an image scanner.

SITx recipients = test: Animal survival after SITx with 6 hours cold preservation; format: in vivo, LEW rats; details: 14 days follow-up; 8/8; saline control 57.1%
Protocol: Small Intestinal Transplantation. Orthotopic small intestinal transplantation (SITx) was performed in syngeneic Lewis rats. SITx with caval drainage was performed using a previously described procedure (Murase et al., in Handbook of Animal Models in Transplantation Research, Cramer et al., Eds. CRC Press, Boca Raton, Fla., pp. 203-213 (1994)). […] The graft was perfused via the aortic segment with 5 ml chilled Ringer's lactate solution, and the intestinal lumen was irrigated with 20 ml of cold saline solution containing 0.5% neomycin-sulfate (Sigma, St. Louis, Mo.). End-to-side anastomoses between the graft aorta and the recipient infrarenal aorta, and between the graft portal vein and recipient vena cava, were performed with 10-0 Novafil™ suture. […] The entire recipient intestine was removed and the enteric continuity was restored by proximal and distal end-to-end intestinal anastomoses. Recipient animals were given 20 mg/day prophylactic cefamandole nafate for 3 postoperative days. Transplanted recipients were given water 3 hours after surgery, and were fed 24 hours after surgery.
Animal survival. Six hours of cold preservation in UW of the intestinal graft induced intestinal dysfunction in untreated recipients; 3 out of 14 control animals died within 24 hours and an additional 3 animals died 5 and 7 days after SITx due to bowel obstruction secondarily to intestinal I/R injury. […]

HO-1 = HO-1 expression in colonic tissue during DSS-colitis (Western blot, semi-quantitative PCR); format: in vivo, C57BL/6 mice; details: CoPP 5 mg/kg i.p. daily, entire 7 day period
Protocol: Western Blot Analysis. Tissue samples from the distal colon of the animals were removed and snap frozen with liquid nitrogen. The frozen tissue was ground thoroughly and homogenized in Ripa buffer supplemented with proteinase inhibitors. The protein concentration was determined by the Bio-Rad Dc Protein Assay™ according manufacturers instructions (Bio-Rad, Hercules, Calif.). Electrophoresis was performed under denaturing conditions according to Laemmli with 10% polyacrylamide gels by loading 35 μg protein. Proteins were transferred onto a polyvinyldifluoridine membrane (Immobilon P™; Millipore, Bedford, Mass.) by electroblotting. Proteins were then detected with rabbit polyclonal antibodies directed against human HO-1 (StressGen, Victoria, Canada) or β-tubulin (Boehringer Mannheim, Mannheim, Germany). Proteins were visualized using HRP-conjugated donkey anti-rabbit IgG or goat anti-mouse IgG (Pierce) and the ECL assay (Amersham Life Science, Arlington Heights, Ill.), according to manufacturer's instructions.
Semi-Quantitative PCR. RNA was extracted using RNeasy Mini Kits (Qiagen Inc., CA, USA) and reverse transcribed into cDNA with the RNA PCR Kit (TaKaRa, PanVera, Madison, Wis., USA). […] PCR products (10-20 μl) were analyzed in an ethidium bromide-stained 1% agarose gel.

For `C=CC1=C(C)/C(=C/C2=NC(=C\c3[nH]c(/C=C4\NC(=O)C(C)=C4C=C)c(C)c3CCC(=O)O)/C(CCC(=O)O)=C2C)NC1=O` [biliverdin, biliverdin dihydrochloride], the “DNA binding of NF-κB” value (NF-κB) was “inhibited DNA binding” and the overall animal survival (SITx recipients) was 100%.
For `C=CC1=C(C)c2cc3[n-]c(cc4nc(cc5[n-]c(cc1n2)c(C)c5CCC(=O)[O-])C(CCC(=O)[O-])=C4C)c(C)c3C=C.[Co+2].[H+].[H+]` [CoPP, Cobalt protoporphyrin], the “HO-1 protein in the intestine” value (HO-1) was “consistently high levels of HO-1 protein”.
